Reference: paper PMC8911181, “A Novel CDK4/6 and PARP Dual Inhibitor ZC-22 Effectively Suppresses Tumor Growth and Improves the Response to Cisplatin Treatment in Breast and Ovarian Cancer” (International Journal of Molecular Sciences, 2022)

Columns and labels:
OVCAR5 xenograft tumors = assay: Ovarian cancer xenograft mouse model, tumor growth; format: in vivo, mice; details: 1.5 mg/kg cisplatin and 50 mg/kg ZC-22 ip
Experimental: Six-week-old female athymic nude mice (Homozygous) were purchase from Vital River Laboratories (Beijing, China) and maintained under the guidelines for laboratory animals of Nankai university (NKU). Mice were injected subcutaneously with 2 × 10^6 MDA-MB-231 or 8 × 10^6 OVCAR5 cells. When tumors were 50–100 mm^3 in size, the mice were randomly grouped and treated intraperitoneal (i.p.) with 50 mg/kg of Olaparib, 50 mg/kg of LY2835219, 50 mg/kg of ZC-22, or 1.5 mg/kg of cisplatin alone or in combinations or with the vehicle (PBS containing 10% DMSO and 10% 2-hydroxy-propyl-β-cyclodextrin) every 2 days. Tumor volume was measured every 3–4 days, which was calculated as Length × Width^2/2. At the end of the study, tumor and major organ tissues were harvested by surgery. For histopathological analysis, tissue samples were washed with PBS, fixed in 4% paraformaldehyde (PFA), paraffin-embedded, and sectioned into 7 μm thickness. […]
Figure 7 ZC-22 increases the efficacy of cisplatin treatment in ovarian cancer cells in vivo. […] Tumor volumes were measured every 2–3 days. […] (B,C) Pictures (B) and quantification of the size (C) of the OVCAR5 xenograft tumors at the end points. […] (D,E) Representative pictures (D) and quantification of percentage (E) of Ki67 and γH2A.X-positive cells in immunohistochemical staining of the OVCAR5 xenograft tumor tissues. […]

[1] = test system: breast and ovarian cancer cells; assay: CCK-8 cell proliferation/viability at fixed concentration; format: cell-based, human; details: 48 or 72 h
Experimental: Cell viability assay was performed as described before. Briefly, 2500/well of breast or ovarian cancer cells were seeded into a 96-well plate; grown overnight; treated with indicated concentration of Olaparib, LY2835219, ZC22, LP-1, GC-24, or cisplatin alone or together for an indicated amount of time; and then incubated with Cell Counting kit-8 (CCK-8) substrate (Dojindo, Kumamoto, Kyushu Island, Japan) for 1–2 h at 37 °C. Cell viability was calculated by the absorbance at 450 nm measured by the GloMax Explorer (Promega, Madison, WI, USA). Cells without treatment were set as 100%, and medium control (no cells) was set as 0%.
Figure 2 ZC-22 suppresses proliferation of breast and ovarian cancer cells. (A) IC50 of ZC-22, Olaparib, and LY2835219 (Abemaciclib) in breast and ovarian cancer cells. […] Cell proliferation was analyzed by CCK-8 assays. […] Cell proliferation assay was analyzed by CCK-8 assays. […]
Figure 5 ZC-22 increases the sensitivity of breast and ovarian cancer cells to cisplatin. […] Representative pictures of EdU staining are shown in the left panels, and quantification of percentage of EdU-positive cells was presented in the bar graphs on the right, n = 3. […] (D) Representative pictures (left) and quantification of percentage (right) of γH2A.X-positive cells in MDA-MB-231 (top panels) and OVCAR5 (bottom panels) cells treated with DDP alone or together with OLA or ZC-22 for 24 h, n = 3. […]

## Cc1nc2c(F)cc(-c3nc(Nc4ccc(N5CCN(C(=O)c6cc(Cc7n[nH]c(=O)c8ccccc78)ccc6F)CC5)cn4)ncc3F)cc2n1C(C)C [ZC-22, 4-(4-fluoro-3-(4-(6-((5-fluoro-4-(4-fluoro-1-isopropyl-2-methyl-1H-benzo[d]imidazole-6-yl)pyrimidin-2-yl)amino)pyridin-3-yl)piperazine-1-carbonyl)benzyl)phthalazin-1(2H)-one]
OVCAR5 xenograft tumors
  sensitization to cisplatin treatment (tumor growth): significantly sensitized ovarian cancer cells to cisplatin treatment
[1]; MDA-MB-231 2 μM, SUM-159, OVCAR5, SKOV3 0.5 μM
  growth inhibition compared with Olaparib and Abemaciclib alone and combined: better anti-tumor efficacy than the Olaparib and Abemaciclib monotherapy, and the combination therapy
[1]; cisplatin 2.5 μM (SKOV3 5 μM) together with 2 μM or 0.5 μM compound
  sensitization of cells to cisplatin (cell viability): greatly sensitized breast and ovarian cancer cells to cisplatin
